Experimental data: PubChem BioAssay AID1963847 (Molecular Pharmacology Branch, DTP, NCI, 2024)
Where “and” joins values, the source holds several entries; their conditions need not be identical. Equal entries are not always repeated.

System: 415267-285-R-J2-PDC complex spheroid viability
Assay: Anticancer human tumor 415267-285-R-J2-PDC patient-derived breast carcinoma cell line growth inhibition [POLQ]
Conditions: for viability, T/C: stronger effect = lower value; for IC50: curve of compound
Protocol: Multicellular complex tumor spheroid response to Polymerase (POL) inhibitors (novobiocin, ART-558, RP6685) in combination with a variety of drugs and investigational agents in selected tumor cell lines
The POL inhibitors (novobiocin, ART-558, and RP6685) were evaluated both individually and in combination with standard of care and investigational anticancer small molecules within a complex spheroid model of solid tumors. . Complex spheroids include a stromal component modeled by human endothelial cells (HUVEC) and fibroblasts modeled by human mesenchymal stem cells (MSCs). The concentration ranges selected for each drug and investigational agent were based upon clinically achievable concentrations if the clinical Cmax of the agent was known.
Compounds. The drugs and investigational agents: novobiocin (NSC847541), ART-558 (NSC835418), RP-6685 (NSC848927), peposertib (NSC802822), ceralasertib (NSC780249), elimusertib (NSC800525), camonsertib (NSC841442), AZD-1390 (NSC803789), olaparib (NSC753686), talazoparib (NSC767125), rucaparib (NSC756644), sotorasib (NSC818433), MRTX-1133 (NSC836407), SN-38 (NSC673596), topotecan (NSC609699), epotoside (NSC141540), doxorubicin (NSC123127), gemcitabine (NSC613327), 5-fluorouracil (NSC19893), paclitaxel (NSC125973), vemurafenib (NSC761431), MSA-2 (NSC828583), SN-011 (NSC837082), adavosertib (NSC754352), prexasertib (NSC758257), carboplatin (NSC241240) and oxaliplatin (NSC266046), were obtained from the National Cancer Institute (NCI) Developmental Therapeutics Program Chemical Repository (21). The FDA-approved anticancer drug set is available from the Developmental Therapeutics Program at https://dtp.cancer.gov/organization/dscb/obtaining/. […] The stock solutions were prepared in dimethyl sulfoxide (DMSO, Sigma-Aldrich, St. Louis, MO, cat. D2650), except for the platinum compounds which were prepared in saline (Quality Biological, Gaithersburg, MD, cat. 114-055-101), at 800-fold the tested concentration and stored at -70 degrees C prior to their use. All drugs and investigational agents were tested over a range starting from a high concentration at or near the clinical Cmax and decreasing in half-log increments. If the clinical Cmax for an agent had not been determined, the highest concentration tested was 10 microM, except for SN-38, which was tested at a high concentration of 1 microM.
Cell Culture. All cells were maintained in an incubator at 37 degrees C and 5% CO2 with 95% humidity. The PDC lines were cultured according to standard operating procedures established by the NCI PDMR (https://pdmr.cancer.gov). Table 3 of the manuscript, lists the cell lines along with the number of the three cell types plated to form the mct-spheroids and media for tumor cell growth. After thawing, all PDC lines, except 997537-175-T-J1-PDC and 415267-285-R-J2-PDC, were cultured in Matrigel-coated flasks prepared with a working solution of 1X Ham's F-12 nutrient mix, without supplementation (Thermo Fisher Scientific, cat. 11765054), 100 U/mL penicillin-streptomycin (Thermo Fisher Scientific, cat. 15140122), and 2.5% Matrigel (Corning Inc., Corning, NY, cat. 354248) for the first three passages. The two PDC lines 997537-175-T-J1-PDC and 415267-285-R-J2-PDC were cultured on uncoated flasks. The 857933-349-R-J2-PDC line was cultured in 6C/Colon 1B media containing advanced DMEM/F-12 (Thermo Fisher Scientific, cat. 12634028), 10 mM HEPES (Thermo Fisher Scientific, cat. 15630080), 1X GlutaMAX supplement (Thermo Fisher Scientific, cat. 35050061), 0.1 mg/mL primocin (InvivoGen, San Diego, CA, cat. ant-pm-2), 10% defined fetal bovine serum, heat inactivated (HyClone Laboratories Inc., Logan, UT, cat. SH30070.03HI), 50% L-WRN conditioned media (ATCC, cat. CRL-3276), 1.25 mM N-Acetyl-L-cysteine (Sigma-Aldrich, cat. A9165), 10 mM nicotinamide (Sigma-Aldrich, cat. N0636), 1X B-27 supplement (Thermo Fisher Scientific, cat. 17504044), 1X N-2 supplement (Thermo Fisher Scientific, cat. […]
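Note: spheroids exposed to compounds for one week before readout.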
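Throughout, for viability, T/C: luminescence used as stand-in measure of viable cells; 100% = DMSO vehicle control viability.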

SMILES	viability, T/C (compound 0.0316 µM)	viability, T/C (compound 0.1 µM)	viability, T/C (compound 0.316 µM)	viability, T/C (compound 1 µM)	viability, T/C (compound 3.16 µM)	viability, T/C (compound 10 µM)	IC50	viability, T/C (compound 0.00316 µM)	viability, T/C (compound 0.01 µM)	viability, T/C (compound 0.00949 µM)	viability, T/C (compound 0.03 µM)	viability, T/C (compound 0.0949 µM)	viability, T/C (compound 0.3 µM)	viability, T/C (compound 0.949 µM)	viability, T/C (compound 3 µM)	viability, T/C (compound 0.000316 µM)	viability, T/C (compound 0.001 µM)
C#Cc1c(F)ccc2cc(O)cc(-c3ncc4c(N5CC6CCC(C5)N6)nc(OCC56CCCN5CC(F)C6)nc4c3F)c12 (stereo unspecified)	106% and 95.4% and 97.2%	103% and 112% and 92.5%	102% and 106% and 94.2%	107% and 109% and 97.7%	106% and 91.5% and 101%	101% and 98% and 104%	> 10 µM	–	–	–	–	–	–	–	–	–	–
C=CC(=O)N1CCN(c2nc(=O)n(-c3c(C)ccnc3C(C)C)c3nc(-c4c(O)cccc4F)c(F)cc23)C(C)C1 (stereo unspecified)	88.5% and 95.7% and 91.3%	105% and 106% and 98.2%	97.6% and 105% and 93.3%	91% and 116% and 101%	98.9% and 108% and 113%	103% and 107% and 96.3%	> 10 µM	–	–	–	–	–	–	–	–	–	–
C=CCn1c(=O)c2cnc(Nc3ccc(N4CCN(C)CC4)cc3)nc2n1-c1cccc(C(C)(C)O)n1	106% and 108% and 97.9%	99.5% and 96.9% and 95.5%	46.4% and 73.5% and 68.8%	7.6% and 7.2% and 5.6%	–	–	0.292 µM and 0.471 µM and 0.446 µM	93.5% and 109% and 105%	94% and 116% and 97.7%	–	–	–	–	–	–	–	–
CC(=O)O[C@H]1C(=O)[C@@]2(C)[C@H]([C@H](OC(=O)c3ccccc3)[C@]3(O)C[C@H](OC(=O)[C@H](O)[C@@H](NC(=O)c4ccccc4)c4ccccc4)C(C)=C1C3(C)C)[C@]1(OC(C)=O)CO[C@@H]1C[C@@H]2O	–	–	–	–	–	–	< 0.00949 µM	–	–	16.9% and 25% and 13%	9.1% and 9.98% and 8.84%	8.45% and 7.67% and 7.24%	8.09% and 8.99% and 7.37%	6.85% and 7.15% and 7.58%	7.67% and 7.6% and 8.18%	–	–
CC(C)n1c(=O)n(C)c2cnc3cc(F)c(-c4ccc(OCCCN5CCCCC5)nc4)cc3c21	92.3% and 106% and 90.9%	97% and 105% and 101%	102% and 115% and 91.9%	112% and 121% and 108%	110% and 108% and 96.3%	83.6% and 103% and 97.1%	> 10 µM	–	–	–	–	–	–	–	–	–	–
CC1COCCN1c1cc(-c2ccnn2C)c2ccnc(-c3ccn[nH]3)c2n1 (stereo unspecified)	46.6% and 47.9% and 59.5%	10.6% and 13.9% and 11.1%	6.96% and 5.73% and 5.2%	5.32% and 5.61% and 4.36%	4.68% and 4.28% and 3.7%	4.66% and 4.53% and 3.78%	< 0.0316 µM and 0.0396 µM	–	–	–	–	–	–	–	–	–	–
CC1COCCN1c1cc(C2(O)CC3CCC(C2)O3)c2cnn(-c3ccn[nH]3)c2n1 (stereo unspecified)	18.3% and 19.4% and 19.9%	6.66% and 6.95% and 6.71%	5.68% and 5.24% and 4.27%	3.96% and 5.04% and 3.53%	6.45% and 6.44% and 3.52%	4.11% and 4.93% and 2.88%	< 0.0316 µM	–	–	–	–	–	–	–	–	–	–
CC1COCCN1c1cc(C2(S(C)(=N)=O)CC2)nc(-c2ccnc3[nH]ccc23)n1 (stereo unspecified)	96.2% and 107% and 97.5%	93.1% and 103% and 94.9%	69.9% and 86.8% and 66.4%	12.1% and 15.8% and 13%	7.35% and 7.07% and 7.38%	5.4% and 3.22% and 5.26%	0.47 µM and 0.575 µM and 0.45 µM	–	–	–	–	–	–	–	–	–	–
CCCS(=O)(=O)Nc1ccc(F)c(C(=O)c2c[nH]c3ncc(-c4ccc(Cl)cc4)cc23)c1F	96.6% and 91.5% and 93.2%	96.8% and 99.3% and 96.4%	104% and 98% and 94.8%	107% (2×) and 100%	88.1% and 98.2% and 98%	86.5% and 87.4% and 72%	> 10 µM	–	–	–	–	–	–	–	–	–	–
CC[C@@]1(O)C(=O)OCc2c1cc1n(c2=O)Cc2cc3c(CN(C)C)c(O)ccc3nc2-1	25.3% and 37.5% and 22.8%	7.48% and 7.95% and 7.34%	–	–	–	–	0.0205 µM and 0.0253 µM and 0.0194 µM	103% and 108% and 98.3%	90.7% and 108% and 86.8%	–	–	–	–	–	–	95.8% and 95.3% and 99.4%	113% and 97% and 101%
CCc1c2c(nc3ccc(O)cc13)-c1cc3c(c(=O)n1C2)COC(=O)[C@]3(O)CC	5.41% and 4.4% and 6.58%	4.94% and 2.95% and 3.9%	2.72% and 1.83% and 3.74%	1.69% and 0.99% and 1.42%	–	–	< 0.00316 µM and 0.00385 µM	32.2% and 58.6% and 31.9%	9.97% and 8.74% and 13.6%	–	–	–	–	–	–	–	–
CCc1cc2c(N3CCc4c(cc(Cn5ccnc5)cc4-c4cn(C)nc4C(F)(F)F)C3=O)cc(C)nc2c(OC)n1	84.8% and 99.7% and 90.9%	89.5% and 98.3% and 92.6%	74.6% and 79% and 86.6%	80.3% and 82.8% and 91.5%	71.9% and 84% and 83.9%	69% and 78.6% and 69.5%	> 10 µM	–	–	–	–	–	–	–	–	–	–
CCc1cc2c(N3CCc4c(cc(Cn5ccnc5)cc4-c4cn(C)nc4C(F)(F)F)C3=O)ccnc2c(OC)n1	82.8% and 92.9% and 84.3%	82.9% and 92.8% and 96.7%	85.8% and 89.2% and 90.2%	83.7% and 94.3% and 90%	82.2% and 82.6% and 86.5%	75.7% and 84.4% and 75.4%	> 10 µM	–	–	–	–	–	–	–	–	–	–
